Test results published in patent US10513521B2, “Compositions and methods for inhibiting BMP” (The Brigham and Women's Hospital, Inc., priority 2014, dated 2019).
Several values for one entry are separate records, joined by “and”; a condition that tells them apart may be missing. Identical values can stand only once.

Tests used:
ALK1 [1] = molecular target: T1, ALK1 (Bos taurus, UniProt A4FUX2); experiment: In-cell Western ALK1 assay (BAOEC cells, BMP9 as agonist); assay type: cell-based, Bovine; details: read-out: BMP9 ICW
T1 construct: The BAOEC cell line was employed for the measurement of ALK1 activity using BMP9 as the agonist; host or cells: BAOEC (bovine aortic endothelial cells)
T1 sequence (A4FUX2 23-503): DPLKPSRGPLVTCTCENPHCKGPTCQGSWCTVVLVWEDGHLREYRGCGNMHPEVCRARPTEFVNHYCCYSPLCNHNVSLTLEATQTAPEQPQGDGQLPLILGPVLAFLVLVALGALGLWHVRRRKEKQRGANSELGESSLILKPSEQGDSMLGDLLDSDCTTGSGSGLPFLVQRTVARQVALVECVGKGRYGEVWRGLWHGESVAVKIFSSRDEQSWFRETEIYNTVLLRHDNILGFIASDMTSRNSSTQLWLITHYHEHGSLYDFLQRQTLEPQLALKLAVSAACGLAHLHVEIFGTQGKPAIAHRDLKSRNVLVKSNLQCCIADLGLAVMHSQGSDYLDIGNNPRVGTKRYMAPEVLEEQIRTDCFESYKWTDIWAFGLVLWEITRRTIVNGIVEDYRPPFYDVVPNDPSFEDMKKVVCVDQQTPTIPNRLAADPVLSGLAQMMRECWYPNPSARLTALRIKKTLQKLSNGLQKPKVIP
Description: 3. In-Cell Western ALK1 and ALK2 Assays in 384-Well Plate Format.
We also optimized cell-based In-cell Western assays for measurements of ALK1 and ALK2 activities that were used to determine compound activities in these two kinases. The cell lines and agonists used were same as described in above cell-based HTRF ALK1 and ALK2 assays. The initial cell plating and compound treatment were also same. The main difference is the detection of phosphorylation status of SMAD1. In t-cell Western assay, the cells were fixed and phosphorylation status of SMAD1 was detected by the ELISA instead of using the HTRF assay kit in above assay.
C2C12 cells and RPMI 1640 medium were obtained from ATCC (Manassas, Va.) and Bovine Aortic endothelial Cells (BAOEC) and epithelial defined growth medium were purchased from Genlantis (San Deigo, Calif.). HyClone Fetal Bovine Serum was obtained from GE healthcare life sciences (Logan, Utah). BMP6 and BMP9 were purchased from R&D System (R&D). Anti-P-SMAD 1/5/8 rabbit mAb and anti-rabbit IgG, HRP-Linked antibody were purchased from Cell Signaling Technology (Danvers, Mass.). BioFX Chemiluminescent Ultra-Sensitive HRP Microwell Substrate ECL Reagent was obtained from SurModics (Edina, Minn.). The compound plates and the white solid MB assay plates were from Greiner Bio-one (Monroe, N.C.).
Similarly as described in above HTRF cell-based assay, this assay was performed in 384 well plate format. C2C12 were grown in T225 flasks were sterilely washed with 1×PBS pre-starved with medium containing 0.1% FBS for 20 hours. Pre-starved cells were then plated in 384 well plate in the starvation medium (containing in 0.1% FBS). After 4 hours, compound dilutions in DMSO were added to the assay plate and incubated for 30 minutes. The assay plate was then added with BMP6 for C2C12 cells or BMP9 for BAOEC cells and incubated for 30 minutes.
Cells were fixed with 50 ul ice-cold methanol and incubated for 15 min after removing the supernatant. The methanol was removed and filled with 0.5% glutaraldehyde and incubated at room temperature for 15 min. The cells were washed in the plate washer with PBS and blocked with 2% BSA in PBS for 1 h at room temperature on the rotator. After removing the blocking reagent, the cells were incubated with the anti-p-SMAD1 antibody in 2% BSA in PBS for overnight at 4° C. on rotator. The cells were washed with PBS in the plate washer and incubated with HRP conjugated second antibody in 2% BSA in PBS for 1 hour at room temperature. After a cell wash with PBS, ECL detection reagent was added and the plate was read in the luminesce mode in the ViewLux plate reader.

ALK1 [2] = molecular target: ALK1 (Homo sapiens, UniProt P37023); experiment: TR-FRET enzymatic ALK kinase assay, ALK1
Chain of ALK1 (Homo sapiens, UniProt P37023) (P37023 22-503): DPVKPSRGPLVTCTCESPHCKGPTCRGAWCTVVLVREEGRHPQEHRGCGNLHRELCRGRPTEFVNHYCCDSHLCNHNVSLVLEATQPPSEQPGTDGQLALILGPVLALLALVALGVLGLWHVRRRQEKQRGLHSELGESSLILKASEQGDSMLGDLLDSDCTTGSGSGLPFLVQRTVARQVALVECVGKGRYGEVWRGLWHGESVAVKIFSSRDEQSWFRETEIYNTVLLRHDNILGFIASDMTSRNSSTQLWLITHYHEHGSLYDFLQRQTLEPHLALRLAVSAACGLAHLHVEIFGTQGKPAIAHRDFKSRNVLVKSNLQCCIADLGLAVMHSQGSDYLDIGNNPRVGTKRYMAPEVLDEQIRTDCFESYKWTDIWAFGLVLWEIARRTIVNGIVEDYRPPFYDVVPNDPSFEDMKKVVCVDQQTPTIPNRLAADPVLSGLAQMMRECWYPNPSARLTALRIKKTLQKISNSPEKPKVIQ
Description: (§1) Briefly, the ALKs enzymatic assay was initiated by dispense 2.5 μl enzyme in 1× kinase reaction buffer. The assay plate was then added with compounds followed by incubation at room temperature for 10 minutes. Then 2.5 μl/well substrate was added.

ALK2 = molecular target: T2, ALK2 (Homo sapiens, UniProt Q04771); experiment: TR-FRET enzymatic ALK kinase assay, ALK2
T2 sequence (Q04771 21-509): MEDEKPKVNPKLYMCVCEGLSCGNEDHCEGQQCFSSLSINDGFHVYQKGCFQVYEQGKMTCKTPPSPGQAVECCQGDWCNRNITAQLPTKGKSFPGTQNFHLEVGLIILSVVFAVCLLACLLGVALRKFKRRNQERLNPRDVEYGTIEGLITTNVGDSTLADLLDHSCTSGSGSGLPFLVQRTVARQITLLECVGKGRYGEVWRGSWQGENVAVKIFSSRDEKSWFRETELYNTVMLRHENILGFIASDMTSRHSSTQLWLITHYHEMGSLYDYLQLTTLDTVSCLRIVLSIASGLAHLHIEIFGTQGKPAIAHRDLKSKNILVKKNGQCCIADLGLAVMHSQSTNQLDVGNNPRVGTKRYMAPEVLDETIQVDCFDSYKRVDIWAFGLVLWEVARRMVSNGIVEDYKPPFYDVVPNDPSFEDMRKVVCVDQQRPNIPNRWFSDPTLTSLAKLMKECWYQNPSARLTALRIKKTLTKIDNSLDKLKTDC
Description: as §1

ALK3 = ALK3 (Homo sapiens, UniProt P36894); experiment: TR-FRET enzymatic ALK kinase assay, ALK3
Chain of ALK3 (P36894 24-532): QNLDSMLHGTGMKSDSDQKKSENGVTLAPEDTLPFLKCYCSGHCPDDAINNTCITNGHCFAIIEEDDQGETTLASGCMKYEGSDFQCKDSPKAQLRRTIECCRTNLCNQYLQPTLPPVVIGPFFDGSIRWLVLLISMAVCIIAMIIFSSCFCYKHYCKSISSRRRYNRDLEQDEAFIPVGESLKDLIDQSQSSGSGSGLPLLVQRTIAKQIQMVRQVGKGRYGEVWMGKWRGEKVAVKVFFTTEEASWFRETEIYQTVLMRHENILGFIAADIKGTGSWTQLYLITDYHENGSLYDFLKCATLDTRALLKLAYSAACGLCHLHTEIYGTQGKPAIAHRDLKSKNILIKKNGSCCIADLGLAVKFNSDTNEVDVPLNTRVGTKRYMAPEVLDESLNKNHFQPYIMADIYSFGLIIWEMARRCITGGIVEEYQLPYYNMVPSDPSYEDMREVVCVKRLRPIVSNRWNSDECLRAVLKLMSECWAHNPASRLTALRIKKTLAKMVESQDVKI
Description: as §1

ALK4 = molecular target: T3, ALK4 (Homo sapiens, UniProt P36896); experiment: TR-FRET enzymatic ALK kinase assay, ALK4
T3 sequence (P36896 24-505): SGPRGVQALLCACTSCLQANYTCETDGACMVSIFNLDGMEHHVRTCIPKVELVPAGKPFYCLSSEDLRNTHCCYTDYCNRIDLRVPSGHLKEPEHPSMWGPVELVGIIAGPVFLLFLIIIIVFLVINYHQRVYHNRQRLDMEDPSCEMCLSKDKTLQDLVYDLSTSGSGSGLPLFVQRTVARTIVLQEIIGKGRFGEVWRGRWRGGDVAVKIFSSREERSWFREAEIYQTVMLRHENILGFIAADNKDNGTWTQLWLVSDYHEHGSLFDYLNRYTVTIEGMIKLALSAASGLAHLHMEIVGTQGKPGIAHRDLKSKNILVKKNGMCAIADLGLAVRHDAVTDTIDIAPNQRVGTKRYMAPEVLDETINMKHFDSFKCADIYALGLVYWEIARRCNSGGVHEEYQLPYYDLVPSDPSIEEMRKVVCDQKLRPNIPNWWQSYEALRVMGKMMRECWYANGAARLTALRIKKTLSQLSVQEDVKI
Description: as §1

ALK6 = ALK6 (Homo sapiens, UniProt O00238); experiment: TR-FRET enzymatic ALK kinase assay, ALK6
Chain of ALK6 (O00238 14-502): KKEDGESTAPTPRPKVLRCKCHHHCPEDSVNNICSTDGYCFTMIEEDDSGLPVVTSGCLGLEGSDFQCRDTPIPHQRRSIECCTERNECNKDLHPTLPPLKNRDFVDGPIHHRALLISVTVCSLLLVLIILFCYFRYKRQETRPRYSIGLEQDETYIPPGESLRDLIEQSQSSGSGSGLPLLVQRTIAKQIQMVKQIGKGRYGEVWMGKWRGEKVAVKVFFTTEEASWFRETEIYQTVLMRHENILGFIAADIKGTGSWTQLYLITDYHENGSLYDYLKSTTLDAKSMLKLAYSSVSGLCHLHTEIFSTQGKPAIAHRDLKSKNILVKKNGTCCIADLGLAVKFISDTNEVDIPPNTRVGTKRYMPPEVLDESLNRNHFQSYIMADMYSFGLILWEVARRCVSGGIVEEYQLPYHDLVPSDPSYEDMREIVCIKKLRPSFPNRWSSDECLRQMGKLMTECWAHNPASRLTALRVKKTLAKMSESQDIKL
Description: as §1

Structure (SMILES) | IC50 (ALK1 [1]) | IC50 (ALK1 [2]) | IC50 (ALK2) | IC50 (ALK3) | IC50 (ALK4) | IC50 (ALK6)
C[S+](=O)([O-])c1cccc(-c2cnn3cc(-c4ccc(OC5(Cn6ccnc6)COC5)cc4)cnc23)c1 [Compound 105, 6-(4-((3-((1H-imidazol-1-yl)methyl)oxetan-3-yl)oxy)phenyl)-3-(3-(methylsulfonyl)phenyl)pyrazolo[1,5-a]pyrimidine] | 1400 nM and 2300 nM and 1200 nM | 150 nM | 95 nM | > 10000 nM | > 10000 nM | > 10000 nM
C[C@@H]1CNC[C@H](C)N1c1ccc(-c2cnc3c(-c4cccc([S+](=O)([O-])C5CC5)c4)cnn3c2)cc1 [Compound 111, 3-(3-(cyclopropylsulfonyl)phenyl)-6-(4-((2R,6S)-2,6-dimethylpiperazin-1-yl)phenyl)pyrazolo[1,5-a]pyrimidine] | 1800 nM | 120 nM | 17 nM | 970 nM | 6500 nM | > 10000 nM
C[C@@H]1CNC[C@H](C)N1c1ccc(-c2cnc3c(-c4cccc(C[S+](C)(=O)[O-])c4)cnn3c2)cc1 [Compound 117, 6-(4-((2R,6S)-2,6-dimethylpiperazin-1-yl)phenyl)-3-(3-((methylsulfonyl)methyl)phenyl)pyrazolo[1,5-a]pyrimidine] | 2400 nM | 200 nM | 49 nM | 3400 nM | 8500 nM | 8700 nM

Further compounds by falling IC50 (ALK1 [2]), results first:

IC50 (ALK1 [1]) | IC50 (ALK1 [2]) | IC50 (ALK2) | IC50 (ALK3) | IC50 (ALK4) | IC50 (ALK6) | Structure (SMILES)
3900 nM | 390 nM | 83 nM | 2600 nM | > 10000 nM | > 10000 nM | CS(=O)(=O)c1cccc(-c2cnn3cc(-c4ccc(OCCN5CCCC5)cc4)cnc23)c1 [Compound 108, 3-(3-(methylsulfonyl)phenyl)-6-(4-(2-(pyrrolidin-1-yl)ethoxy)phenyl)pyrazolo[1,5-a]pyrimidine]
1500 nM | 110 nM | 33 nM | 1700 nM | 9100 nM | 9000 nM | CC1(c2ccc(-c3cnc4c(-c5cccc(S(C)(=O)=O)c5)cnn4c3)cc2)CCNCC1 [Compound 115, 6-(4-(4-methylpiperidin-4-yl)phenyl)-3-(3-(methylsulfonyl)phenyl)pyrazolo[1,5-a]pyrimidine]
